Test results published in ChEMBL document CHEMBL5528064, “Invention of MK-7845, a SARS-CoV-2 3CL Protease Inhibitor Employing a Novel Difluorinated Glutamine Mimic” (J Med Chem, 2024).
pEC50, pIC50, pKi: −log10 of the molar value. In brackets after ≈: the same amount, converted by molar mass.

Assays:
SARS-CoV-2 [1] = assay: Antiviral activity against SARS CoV-2 USA-WA1/2020 infected in B6.Cg-Tg(K18-ACE2)2Prlmn/J mouse assessed as fold reduction in viral load in lung at 500 mg/kg, po bid measured on day 4 post inoculation; format: functional, Severe acute respiratory syndrome coronavirus 2; settings: time 4 day
Cytochrome P450 2C9 = Cytochrome P450 2C9 (Homo sapiens, UniProt P11712); assay: Reversible inhibition of CYP2C9 in human liver microsomes using diclofenac as substrate incubated for 5 mins in presence of NADPH-generating system by LC-MS/MS analysis; format: ADME, Microsome
Cytochrome P450 2C9, sequence (P11712 whole entry): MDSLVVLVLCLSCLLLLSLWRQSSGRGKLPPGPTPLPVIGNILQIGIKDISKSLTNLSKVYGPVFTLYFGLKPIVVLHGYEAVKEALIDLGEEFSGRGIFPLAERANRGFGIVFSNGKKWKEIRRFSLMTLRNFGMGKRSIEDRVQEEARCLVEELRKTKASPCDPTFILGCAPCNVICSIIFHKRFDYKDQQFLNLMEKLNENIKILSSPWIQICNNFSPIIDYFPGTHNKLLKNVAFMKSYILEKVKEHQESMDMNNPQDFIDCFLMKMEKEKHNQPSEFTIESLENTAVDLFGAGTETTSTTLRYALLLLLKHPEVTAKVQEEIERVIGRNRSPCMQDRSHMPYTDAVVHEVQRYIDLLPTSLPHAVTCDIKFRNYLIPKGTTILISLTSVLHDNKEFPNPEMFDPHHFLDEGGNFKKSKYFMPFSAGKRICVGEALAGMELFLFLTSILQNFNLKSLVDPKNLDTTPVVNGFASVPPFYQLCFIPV

[2] = Oral bioavailability in rat at 3 mg/kg measured upto 24 hrs by LC-MS analysis; format: ADME, organism-based; settings: in vivo
[3] = Volume of distribution at steady state in rat by measuring compound and its epimer at 3 mg/kg, po or 1 mg/kg, iv measured upto 24 hrs by LC-MS analysis; format: ADME, organism-based; settings: in vivo
SARS-CoV-2 [4] = assay: Antiviral activity against SARS CoV-2 USA-WA1/2020 infected in po dosed B6.Cg-Tg(K18-ACE2)2Prlmn/J mouse assessed as reduction in viral RNA level administered orally twice daily and measured on day 4 post inoculation by RT-PCR analysis; format: functional, organism-based; settings: Severe acute respiratory syndrome coronavirus 2, dose 100-500 mg/kg, time 4.0 day
[5] = Plasma protein binding in dog assessed as unbound fraction at 1 uM; format: ADME, cell-free, Canis lupus familiaris
[6] = Plasma stability in human assessed as epimerization at 1 uM measured upto 3 hrs by LC-MS/MS analysis; format: ADME, cell-free
[7] = Plasma stability in rhesus monkey assessed as epimerization; format: ADME, cell-free, Macaca mulatta
[8] = Plasma stability in rat assessed as epimerization at 1 uM measured upto 3 hrs by LC-MS/MS analysis; format: ADME, cell-free
[9] = Plasma protein binding in human assessed as unbound fraction at 1 uM; format: ADME, cell-free
Cytochrome P450 3A4 = Cytochrome P450 3A4 (Homo sapiens, UniProt P08684); assay: Induction of CYP3A4 in human hepatocytes assessed as increase in CYP3A4 mRNA level at 20 uM measured after 48 hrs by PCR analysis relative to control; format: ADME, cell-based, Hepatocyte
Cytochrome P450 3A4, sequence (P08684 whole entry): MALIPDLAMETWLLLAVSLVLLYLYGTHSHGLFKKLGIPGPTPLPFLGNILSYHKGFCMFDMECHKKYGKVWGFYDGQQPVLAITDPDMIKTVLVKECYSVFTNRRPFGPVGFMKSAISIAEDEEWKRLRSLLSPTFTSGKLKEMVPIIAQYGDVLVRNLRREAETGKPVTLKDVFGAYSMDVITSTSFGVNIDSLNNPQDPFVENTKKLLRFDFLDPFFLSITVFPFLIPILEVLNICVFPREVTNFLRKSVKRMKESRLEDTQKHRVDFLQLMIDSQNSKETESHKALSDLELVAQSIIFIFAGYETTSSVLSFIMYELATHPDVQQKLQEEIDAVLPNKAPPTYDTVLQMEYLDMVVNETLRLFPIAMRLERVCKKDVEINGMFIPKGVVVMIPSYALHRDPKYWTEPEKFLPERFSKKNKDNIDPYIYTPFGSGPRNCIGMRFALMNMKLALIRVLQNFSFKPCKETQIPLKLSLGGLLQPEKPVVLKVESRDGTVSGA

CYP3A [10] = target: T1, CYP3A (Homo sapiens, UniProt P08684+P20815+P24462+Q9HB55); assay: Reversible inhibition of CYP3A in human liver microsomes incubated for 5 mins in presence of NADPH-generating system by LC-MS/MS analysis; format: ADME, Microsome
[11] = Lipophilicity, logD of compound at pH 8 by HPLC analysis; format: physicochemical; settings: buffer
SARS-CoV-2 [12] = assay: Antiviral activity against SARS CoV-2 USA-WA1/2020 infected in B6.Cg-Tg(K18-ACE2)2Prlmn/J mouse assessed as log reduction in plaque-forming units in lung at […], po bid measured on day 4 post inoculation; format: functional, Severe acute respiratory syndrome coronavirus 2; settings: time 4 day
[13] = Aqueous solubility of compound; format: physicochemical; settings: buffer
CYP3A [14] = target: T1, CYP3A; assay: Time dependent inhibition of CYP3A in human liver microsomes assessed as inhibition constant; format: ADME, Microsome
[15] = Plasma protein binding in rat assessed as free fraction at 1 uM; format: ADME, cell-free
[16] = Apparent permeability in MDCK cells; format: ADME, cell-based, Canis lupus familiaris; settings: dog
Cytochrome P450 2C19 = Cytochrome P450 2C19 (Homo sapiens, UniProt P33261); assay: Reversible inhibition of CYP2C19 in human liver microsomes using S-mephenytoin as substrate incubated for 5 mins in presence of NADPH-generating system by LC-MS/MS analysis; format: ADME, Microsome
Cytochrome P450 2C19, sequence (P33261 whole entry): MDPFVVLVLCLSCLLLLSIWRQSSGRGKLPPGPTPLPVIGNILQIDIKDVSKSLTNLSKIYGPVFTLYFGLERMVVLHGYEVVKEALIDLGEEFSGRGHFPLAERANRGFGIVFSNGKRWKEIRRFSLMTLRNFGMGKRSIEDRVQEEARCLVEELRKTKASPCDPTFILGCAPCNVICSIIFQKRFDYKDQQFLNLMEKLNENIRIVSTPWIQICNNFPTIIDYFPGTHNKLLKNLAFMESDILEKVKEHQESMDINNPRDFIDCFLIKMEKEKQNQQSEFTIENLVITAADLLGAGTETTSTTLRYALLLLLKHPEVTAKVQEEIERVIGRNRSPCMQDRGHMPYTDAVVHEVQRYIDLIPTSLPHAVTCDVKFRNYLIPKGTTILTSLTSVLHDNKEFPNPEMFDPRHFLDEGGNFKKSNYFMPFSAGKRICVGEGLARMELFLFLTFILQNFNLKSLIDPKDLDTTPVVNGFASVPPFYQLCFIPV

[17] = Oral bioavailability in human; format: ADME, organism-based; settings: in vivo
Cytochrome P450 1A2 [18] = target: T2, Cytochrome P450 1A2 (Homo sapiens, UniProt P05177); assay: Induction of CYP1A2 in human hepatocytes assessed as increase in CYP1A2 mRNA level at 20 uM measured after 48 hrs by PCR analysis relative to control; format: ADME, cell-based, Hepatocyte
T2 sequence (P05177 whole entry): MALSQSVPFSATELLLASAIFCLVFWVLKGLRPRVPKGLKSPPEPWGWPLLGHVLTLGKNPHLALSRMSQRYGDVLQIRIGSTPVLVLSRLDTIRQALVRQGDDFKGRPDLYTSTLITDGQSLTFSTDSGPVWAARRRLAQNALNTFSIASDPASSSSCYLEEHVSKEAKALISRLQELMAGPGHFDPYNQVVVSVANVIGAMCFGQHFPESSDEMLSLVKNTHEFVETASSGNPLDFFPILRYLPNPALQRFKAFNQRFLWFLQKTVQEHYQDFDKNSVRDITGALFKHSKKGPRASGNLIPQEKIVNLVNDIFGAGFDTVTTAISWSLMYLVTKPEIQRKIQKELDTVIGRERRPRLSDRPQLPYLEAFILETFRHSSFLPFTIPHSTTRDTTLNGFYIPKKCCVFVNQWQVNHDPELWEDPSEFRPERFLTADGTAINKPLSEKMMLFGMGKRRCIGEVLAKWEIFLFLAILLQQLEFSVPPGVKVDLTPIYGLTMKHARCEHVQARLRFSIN

[19] = Plasma stability in dog assessed as epimerization at 1 uM measured upto 3 hrs by LC-MS/MS analysis; format: ADME, cell-free, Canis lupus familiaris
[20] = target: T3, Nuclear receptor subfamily 1 group I member 2 (Homo sapiens, UniProt O75469); assay: Activation of PXR (unknown origin); format: toxicity
T3 sequence (O75469 whole entry): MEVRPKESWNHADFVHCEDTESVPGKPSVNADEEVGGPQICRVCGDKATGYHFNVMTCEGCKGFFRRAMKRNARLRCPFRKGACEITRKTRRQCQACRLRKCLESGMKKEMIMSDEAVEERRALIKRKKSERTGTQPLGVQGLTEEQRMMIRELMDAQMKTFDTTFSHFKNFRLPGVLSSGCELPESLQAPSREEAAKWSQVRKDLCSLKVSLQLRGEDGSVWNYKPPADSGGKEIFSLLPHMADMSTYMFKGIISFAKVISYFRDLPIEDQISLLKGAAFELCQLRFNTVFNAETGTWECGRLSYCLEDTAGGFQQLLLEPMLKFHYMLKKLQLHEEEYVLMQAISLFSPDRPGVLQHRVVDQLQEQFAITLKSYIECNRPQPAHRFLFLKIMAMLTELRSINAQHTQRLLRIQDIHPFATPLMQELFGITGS

SARS-CoV-2 [21] = assay: Antiviral activity against SARS CoV-2 USA-WA1/2020 infected in po dosed B6.Cg-Tg(K18-ACE2)2Prlmn/J mouse assessed as reduction in viral load in lung administered orally twice daily and measured on day 4 post inoculation; format: functional, organism-based; settings: Severe acute respiratory syndrome coronavirus 2, dose 100-500 mg/kg, time 4.0 day
Cytochrome P450 1A2 [22] = target: T2, Cytochrome P450 1A2; assay: Reversible inhibition of CYP1A2 in human liver microsomes using phenacetin as substrate incubated for 5 mins in presence of NADPH-generating system by LC-MS/MS analysis; format: ADME, Microsome
Cytochrome P450 2D6 = Cytochrome P450 2D6 (Homo sapiens, UniProt P10635); assay: Reversible inhibition of CYP2D6 in human liver microsomes using dextromethorphan as substrate incubated for 5 mins in presence of NADPH-generating system by LC-MS/MS analysis; format: ADME, Microsome
Cytochrome P450 2D6, sequence (P10635 whole entry): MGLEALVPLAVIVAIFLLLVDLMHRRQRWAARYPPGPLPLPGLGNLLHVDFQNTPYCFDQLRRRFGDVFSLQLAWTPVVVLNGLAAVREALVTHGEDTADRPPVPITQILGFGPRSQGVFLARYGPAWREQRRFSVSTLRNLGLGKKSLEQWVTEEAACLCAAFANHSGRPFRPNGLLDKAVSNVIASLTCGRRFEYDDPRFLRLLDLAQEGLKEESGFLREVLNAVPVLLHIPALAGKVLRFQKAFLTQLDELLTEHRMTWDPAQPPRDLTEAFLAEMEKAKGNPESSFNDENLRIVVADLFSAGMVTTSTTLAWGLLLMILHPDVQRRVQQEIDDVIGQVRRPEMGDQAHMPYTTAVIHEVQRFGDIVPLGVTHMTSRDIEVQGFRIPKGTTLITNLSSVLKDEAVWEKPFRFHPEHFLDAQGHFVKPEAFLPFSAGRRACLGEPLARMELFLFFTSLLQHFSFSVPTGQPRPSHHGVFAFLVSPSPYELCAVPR

SARS-CoV-2 [23] = assay: Antiviral activity against SARS-CoV-2 Delta B.1.617 AY-2 infected in human A549-hACE2-TMPRSS2 cells assessed as inhibition of virus induced cytopathic effect incubated for 72 hrs by celltiter glo assay; format: functional, organism-based; settings: Severe acute respiratory syndrome coronavirus 2, Delta B.1.617 AY-2, A549-hACE2-TMPRSS2, 72 h

CNC(=O)C(=O)[C@H](CCC(C)(F)F)NC(=O)[C@@H]1[C@H]2CCC[C@H]2CN1C(=O)[C@@H](NC(=O)OC)C(C)(C)C
fold change (FC) (SARS-CoV-2 [1]): 5
pIC50 (Cytochrome P450 2C9): < 3.70
bioavailability [2]: 65%
Vdss [3]: 2.8 L/kg
Activity (SARS-CoV-2 [4]): Dose-Dependent Effect
fraction unbound at 1 µM [5]: 0.09
Stability [6]: Unstable
Stability [7]: Unstable
Stability [8]: Unstable
fraction unbound at 1 µM [9]: 0.27
Activity (Cytochrome P450 3A4): 22%
IC50 at 5 min (CYP3A [10]): 118 µM
logD [11]: 2.49
log(activity) (SARS-CoV-2 [12]): 1.7
solubility [13]: 4500 µg/mL (≈ 8.71 mM)
pKi (CYP3A [14]): 3.96
fraction unbound at 1 µM [15]: 0.1
Papp [16]: 5.7 ×10⁻⁶ cm/s
pIC50 (Cytochrome P450 2C19): < 3.70
bioavailability [17]: 67%
Activity (Cytochrome P450 1A2 [18]): < 1%
Stability [19]: Unstable
pEC50 [20]: < 4.52
Activity (SARS-CoV-2 [21]): Dose-Dependent Effect
pIC50 (Cytochrome P450 1A2 [22]): < 3.70
pIC50 (Cytochrome P450 2D6): < 3.70
pIC50 (SARS-CoV-2 [23]): 6.45
